In EP0728480A1, “Use of ifenprodil for treatment of elevated intraocular pressure” (ROHTO PHARMACEUTICAL CO., LTD., priority 1995, dated 1996):
Counter-ions that a name gives are not always drawn.

Test system: rabbits with normal intraocular pressure
Experiment: Experiment 1: ocular hypotensive effect of eye drops (applanation pneumatonograph)
Assay type: in vivo, Male Dutch species coloured rabbits
Details: for Difference in IOP between the control and test eyes: 50 µl instilled
Method: The ocular hypotensive effect of the eye drops of this invention was investigated in rabbits. The same experiment was also conducted using a representative β-adrenergic blocking agent, and its ocular hypotensive effect was compared with that of eye drops of this invention. Methods: According to the formulations described in Examples 1, 2 and 3, three kinds of eye drops respectively containing 0.5, 0.05 and 0.005% of the compound (1) were prepared. As a negative control, eye drops not containing compound (1), which is eye drops described in Reference Example below, were used. The positive control was commercially available eye drops containing timolol maleate (0.5% equivalent of free base) as an active ingredient. Male Dutch species coloured rabbits (body weight: ca. 2 kg) with normal intraocular pressure were used in the experiment. Each of the test solutions (three kinds of eye drops containing 0.5, 0.05 or 0.005% of ifenprodil) (50 µl) was instilled into one eye of each rabbit, and the control solution free of ifenprodil (50 µl), the eye drops described in Reference Example, into the fellow eye which served as a control. For each solution, six rabbits were used. After anesthesia of the corneal surface by instillating 5 µl of 0.4% oxybuprocaine hydrochloride, the intraocular pressure was measured using an applanation pneumatonograph (Alcon) before and after the instillation of the test solution and control solution. Measurement of intraocular pressure after the instillation was conducted with one-hour intervals until six hours - nine hours post-instillation.

[1] = eye drops 0.5%, one hour after instillation, difference from control eye

Compound | Difference in IOP between the control and test eyes (eye drops 0.5% free base, 1 hr) [mmHg] | Difference in IOP between the control and test eyes (eye drops 0.5% free base, 2 hr) [mmHg] | Difference in IOP between the control and test eyes (eye drops 0.5% free base, 4 hr) [mmHg] | Difference in IOP between the control and test eyes (eye drops 0.5% free base, 6 hr) [mmHg] | average IOP reduction [1] [mmHg] | average IOP reduction (eye drops 0.5%, two hours after administration) [mmHg] | IOP reduction (eye drops 0.005%) | Difference in IOP between the control and test eyes (eye drops 0.005% free base, 1 hr) [mmHg] | Difference in IOP between the control and test eyes (eye drops 0.005% free base, 2 hr) [mmHg] | Difference in IOP between the control and test eyes (eye drops 0.005% free base, 4 hr) [mmHg] | Difference in IOP between the control and test eyes (eye drops 0.005% free base, 6 hr) [mmHg] | Difference in IOP between the control and test eyes (eye drops 0.05% free base, 1 hr) [mmHg] | Difference in IOP between the control and test eyes (eye drops 0.05% free base, 2 hr) [mmHg] | Difference in IOP between the control and test eyes (eye drops 0.05% free base, 4 hr) [mmHg] | Difference in IOP between the control and test eyes (eye drops 0.05% free base, 6 hr) [mmHg] | average IOP reduction (eye drops 0.05%, one hour after administration) [mmHg] | duration of ocular hypotensive effect (eye drops 0.5%) | time of maximal IOP reduction (eye drops 0.5%)
CC(C)(C)NC[C@H](O)COc1nsnc1N1CCOCC1 [Timolol maleate, timolol maleate, reference compound] | -0.88 | -0.58 | -0.25 | -0.13 | 0.9 | 0.6 | – | – | – | – | – | – | – | – | – | – | – | –
CC(C(O)c1ccc(O)cc1)N1CCC(Cc2ccccc2)CC1 (centres unmarked) [Compound (1), 2-(4-benzylpiperidino)-1-(4-hydroxyphenyl)-1-propanol] | -2.67 | -2.17 | -1.17 | -1.13 | 2.7 | – | produced IOP reduction which varies depending on concentration of compound (1) | -0.79 | -0.75 | -0.79 | -0.17 | -1.79 | -0.96 | -0.67 | -0.38 | 1.8 | retained for nine hours after instillation | one hour after instillation
